# According to patent US11351184B2, “Preparation of Pulsatilla saponin B4 for injection” (priority 2017, dated 2022):
# Experiments:
# [1] = tested on: Cisplatin-induced Acute Kidney Injury In Mice; experiment: Effect of B4 by different administration routes on cisplatin-induced acute kidney injury in mice; type: in vivo, ICR mouse; details: for BUN / Crea / TP / Urine protein: 4 days; for Reduction of effective dose to reverse cisplatin-induced renal injury, injection compared with oral administration: iv 5 mg/kg versus gavage 100 mg/kg
# Method: Pulsatilla saponin B4 was orally and intravenously administrated in parallel, the effect of Pulsatilla saponin B4 in different administration routes on acute nephritis in cisplatin (CDDP)-stimulated mouse serum was investigated.
# The drugs were all prepared into a solution with a specified concentration under “Test Method” with double distilled water and administered in the prescribed manner.
# 2.2 Modeling method: models were made at a dose of […] of cisplatin, the mice in normal group were injected with physiological saline intraperitoneally and the mice in other groups were injected with cisplatin intraperitoneally.
# 2.3 Grouping and administration: Animals were randomly divided into seven groups, 10-12 animals in each group:
# (3) Dexamethasone positive group (0.5 mg/kg·body weight), dexamethasone solution was administered by gavage at a dose of 20 ml/kg·body weight;
# (4) B4 high-dose group administered intravenously (5 mg/kg·body weight), B4 solution was injected into the tail vein at a dose of 5 ml/kg·body weight;
# (5) B4 low-dose group administered intravenously (2.5 mg/kg·body weight), B4 solution was injected into the tail vein at a dose of 5 ml/kg·body weight;
# (6) B4 high-dose group administered by gavage (100 mg/kg·body weight), B4 solution was given by gavage at a dose of 20 ml/kg·body weight;
# (7) B4 low-dose group administered by gavage (50 mg/kg·body weight), B4 solution was given by gavage at a dose of 20 m/kg·body weight;
# Drugs were administered continuously for 4 days from the day of modeling.
# Urine was collected 0.5 hours after the last administration and urine protein was measured; blood was collected from the eyeball 1 hour after the administration, and the whole blood of the mice was placed at room temperature for 2 hours, centrifuged at 3500 rpm/min for 15 minutes, 200 μl supernatant was measured by an automatic biochemical analyzer to determine the total protein (TP), urea nitrogen (BUN) and creatinine (Cre).
# [2] = Water solubility of Pulsatilla saponin B4; type: physicochemical
# [3] = Compatibility test of raw materials and excipients (high temperature and illumination); type: physicochemical
# Method: The content of Pulsatilla saponin B4 in the following experimental examples and examples is determined according to the following method:
# Chromatographic column: C18, 250 mm×4.6 mm, 5 μm
# Mobile phase: acetonitrile-water (26:74) (volume ratio)
# An appropriate amount of Pulsatilla saponin B4 control sample was taken, weighed precisely, placed into a 10 ml volumetric flask, added with methanol to dissolve and dilute to the mark, the solution was shaken well and filtered to obtain a solution with 1 mg Pulsatilla saponin B4 control sample/1 ml solution.
# About 25 mg of test sample was taken, weighed precisely, placed into a 25 ml volumetric flask, added with the mobile phase to dissolve and dilute to the mark, the solution was shaken well and filtered through a 0.22 μm microporous membrane, the filtrate was taken to obtain the test sample.
# 10 μl of the test solution was taken and injected into a liquid chromatograph, the chromatogram was recorded. The calculation formula was as follows: […]
# Pulsatilla saponin B4 raw material was mixed with various excipients (water for injection, physiological saline, mannitol, lactose, sucrose and glucose) in a ratio of 1:5 (mass), and then placed under the conditions of high temperature (60° C. and 40° C.) and illumination (4500Lux±500), the samples were taken on day 0, 7 and 14 to investigate the purity of Pulsatilla saponin B4 and related substances.
# [4] = dexamethasone 0.5 mg/kg by gavage, serum 1 h after last administration
# [5] = B4 iv (tail vein) 2.5 mg/kg, serum
# [6] = B4 po (gavage) 100 mg/kg, serum
# [7] = day 0, raw material:excipient 1:5 (mass)
# [8] = day 7, illumination (4500Lux±500)
# [9] = day 14, illumination (4500Lux±500)
smiles,measurement,setting,value
"C[C@@H]1C[C@H]2[C@@H]3CCC4=CC(=O)C=C[C@]4(C)[C@@]3(F)[C@@H](O)C[C@]2(C)[C@@]1(O)C(=O)CO [Positive control, Dexamethasone, reference compound]",BUN,[1]; [4],42.97 ± 27.45 mg/dL
same,Crea,[1]; [4],30.10 ± 3.93 µmol/L
same,TP,[1]; [4],52.90 ± 2.50 g/L
same,BUN,"[1]; dexamethasone 0.5 mg/kg by gavage, serum 1 h after last administration, listed as positive control",decreased significantly
same,Urine protein,"[1]; dexamethasone 0.5 mg/kg by gavage, urine 0.5 h after last administration",1.00 ± 0.27 mg/mL
same,Urine protein,"[1]; dexamethasone 0.5 mg/kg by gavage, urine 0.5 h after last administration, listed as positive control",decreased significantly
"C=C(C)C1CC[C@]2(C(=O)O[C@@H]3O[C@H](CO[C@@H]4O[C@H](CO)[C@@H](O[C@@H]5O[C@@H](C)[C@H](O)[C@@H](O)[C@H]5O)[C@H](O)[C@H]4O)[C@@H](O)[C@H](O)[C@H]3O)CC[C@]3(C)[C@H](CC[C@@H]4[C@@]5(C)CC[C@H](OC6OC[C@H](O)[C@H](O)[C@H]6O[C@]6(O)O[C@@H](C)[C@H](O)[C@@H](O)[C@H]6O)[C@@](C)(CO)[C@@H]5CC[C@]43C)[C@@H]12 (stereo partly drawn) [Prescription B4, Pulsatilla saponin B4]",BUN,[1]; [5],69.26 ± 45.76 mg/dL
same,Crea,[1]; [5],29.27 ± 5.66 µmol/L
same,TP,[1]; [5],47.58 ± 2.50 g/L
same,Urine protein,"[1]; B4 iv (tail vein) 2.5 mg/kg, urine",1.35 ± 0.39 mg/mL
same,TP,"[1]; B4 iv (tail vein) 5 mg/kg, serum",46.58 ± 2.25 g/L
same,BUN,"[1]; B4 po (gavage) 50 mg/kg, serum",50.1 ± 5.38 mg/dL
same,Crea,"[1]; B4 po (gavage) 50 mg/kg, serum",30.28 ± 4.77 µmol/L
same,TP,"[1]; B4 po (gavage) 50 mg/kg, serum",47.69 ± 3.17 g/L
same,Urine protein,"[1]; B4 po (gavage) 50 mg/kg, urine",1.37 ± 0.31 mg/mL
same,Crea,[1]; [6],28.17 ± 3.01 µmol/L
same,TP,[1]; [6],48.15 ± 3.68 g/L
same,Urine protein,"[1]; B4 po (gavage) 100 mg/kg, urine",1.19 ± 0.25 mg/mL
same,"Reduction of effective dose to reverse cisplatin-induced renal injury, injection compared with oral administration",[1],at least 20 times
same,"Reduction of effective dose to reverse cisplatin-induced renal injury, injection compared with oral administration",[1]; listed as Pulsatilla saponin B4,20 times
same,water solubility,[2],good water solubility
same,Purity (%),[3]; [7],99.10%
same,Related substances (%) Max single impurity,[3]; [7],0.40%
same,Related substances (%) Total impurities,[3]; [7],0.65%
same,Content (%) 40° C.,"[3]; day 7, 40° C.",98.96%
same,Related substances (%) 40° C. Max single impurity,"[3]; day 7, 40° C.",0.40%
same,Related substances (%) 40° C. Total impurities,"[3]; day 7, 40° C.",0.64%
same,Content (%) 60° C.,"[3]; day 7, 60° C.",98.93%
same,Related substances (%) 60° C. Max single impurity,"[3]; day 7, 60° C.",0.41%
same,Related substances (%) 60° C. Total impurities,"[3]; day 7, 60° C.",0.66%
same,Content (%) illumination,[3]; [8],98.97%
same,Related substances (%) illumination Max single impurity,[3]; [8],0.40%
same,Related substances (%) illumination Total impurities,[3]; [8],0.64%
same,Content (%) 40° C.,"[3]; day 14, 40° C.",98.86%
same,Related substances (%) 40° C. Max single impurity,"[3]; day 14, 40° C.",0.41%
same,Related substances (%) 40° C. Total impurities,"[3]; day 14, 40° C.",0.63%
same,Content (%) 60° C.,"[3]; day 14, 60° C.",98.89%
same,Related substances (%) 60° C. Max single impurity,"[3]; day 14, 60° C.",0.41%
same,Related substances (%) 60° C. Total impurities,"[3]; day 14, 60° C.",0.64%
same,Content (%) illumination,[3]; [9],98.95%
same,Related substances (%) illumination Max single impurity,[3]; [9],0.42%
same,Related substances (%) illumination Total impurities,[3]; [9],0.64%
